Columns and labels:
recombinant human FAMIN [1] = molecular target: T1, recombinant human FAMIN (Homo sapiens, UniProt Q8IV20); assay: specificity of FAMIN activity towards purine and pyrimidine nucleosides (substrate consumption, LC-MS); type: biochemical; settings: pure substrate with 10 μg recombinant FAMIN in 100 μl PBS, pH 7.4, 1 h at 37° C. (FIG. 2A, 2N, 2R, 2S)
T1 construct: twin Strep-tag (followed by short linker and TEV cleavage site) (N, cleaved yes); made in house; host or cells: HEK293T
T1 sequence (Q8IV20 1-430): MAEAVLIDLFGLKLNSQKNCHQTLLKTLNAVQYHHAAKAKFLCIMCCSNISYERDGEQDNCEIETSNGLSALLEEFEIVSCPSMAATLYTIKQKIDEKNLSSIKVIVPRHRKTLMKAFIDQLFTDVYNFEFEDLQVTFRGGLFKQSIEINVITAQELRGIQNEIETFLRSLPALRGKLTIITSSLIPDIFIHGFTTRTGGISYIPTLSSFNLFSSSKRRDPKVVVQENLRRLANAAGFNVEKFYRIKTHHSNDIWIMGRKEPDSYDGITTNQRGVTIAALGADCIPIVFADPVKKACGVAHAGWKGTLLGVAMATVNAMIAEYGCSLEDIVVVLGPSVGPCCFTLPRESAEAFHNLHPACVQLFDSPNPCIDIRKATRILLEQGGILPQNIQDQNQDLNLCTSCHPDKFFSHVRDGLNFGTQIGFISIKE
Source text: Peak intensity of each extracted chromatogram per given m/z value normalised to maximum level of 100. Controls as indicated include reaction buffer (PBS), protein elution buffer as described in methods, recombinant FAMIN without substrate or protein buffer with adenosine substrate. […] FIGS. 2C, 2D, 2E, and 2F show representative chromatograms and mass spectra for (2C) adenine, (2D) hypoxanthine, (2E) inosine and (2F) ribose-1-phosphate. Upper panels: (2C-E) extracted positive ion chromatogram showing injection of (2C) 1 μM standard of adenine; (2D) 5 μM standard of hypoxanthine; (2E) 5 μM standard of inosine on a BEH C8 column; (2F) extracted negative ion chromatogram showing injection of a 5 μg/mL standard of ribose-1-phosphate on a BEH amide HILIC column. All measurements performed using the Q Exactive Orbitrap and extracted at m/z values of (2C) adenine [M+H]^+: 136.0617, (2D) hypoxanthine [M+H]^+: 137.0457, (2E) inosine [M+H]^+: 269.0877 and (2F) ribose-1-phosphate [M−H]^−: 229.0119 at a tolerance of 2 ppm. Middle panels: Corresponding extracted chromatograms of a representative sample (10 μg recombinant FAMIN^254I incubated with 10 μM adenosine for 1 h in 100 μl phosphate-buffered saline). Peaks at indicated retention times perfectly match those of adenine, hypoxanthine, inosine and ribose-1-phosphate standards. Lower panels: high resolution Fourier transform mass spectrometry (FTMS) mass spectrum of the representative FAMIN^254I incubated sample during the peaks putatively identified as (2C) adenine, (2D) hypoxanthine, (2E) inosine, or (2F) ribose-1-phosphate. Nominal m/z values of (2C) 136, (2D) 137, (2E) 269 and (2F) 229, respectively, were selectively targeted and fragmented using a higher-energy collision dissociation (HCD) collision voltage of 25 eV to give the fragments shown. […] Calculated from absolute levels of hypoxanthine and inosine quantified using ^13C2, ^15N1-hypoxanthine and ^15N4-inosine internal standards, and adenine levels estimated using adenine external standard. […] (SAM; S-adenosylmethionine; MTA, S-methyl-5′-thioadenosine; 2′-dA, 2′-deoxyadenosine; n=3, mean±S.E.M.). […] FIGS. 2P and 2Q show on the left FAMIN catalysed enzymatic reactions. On the right they show levels of guanine or hypoxanthine and ribose-1-phosphate in reactions containing 100 μM guanosine or inosine and recombinant FAMIN or buffer control in 100 μl after 1 h at 37° C. (n=3, mean±S.E.M.). […] On the lower panels adenine, 2′-deoxyinosine, hypoxanthine and deoxyribose-1-phosphate levels following incubation of 10 μg recombinant FAMIN or buffer control with 10 μM 2′deoxyadenosine for 1 h in 100 μl PBS (n=3 each, mean±S.E.M.). […] All metabolite level data in this figure measured as area under the chromatographic peak, normalised for total ion content. *P<0.05 (unpaired, two-tailed Student's t-test).
Putative enzymatic function of recombinant human strep-tagged FAMIN was investigated against aqueous HepG2 metabolite extracts (dried, Folch extracted from 5×10^6 cells) or nucleoside substrates at indicated concentrations and detected using HPLC-MS as described above. Unless otherwise indicated in the figure legends, HEK293T cell-expressed protein was used for all assays. The reaction mixture (final volume 100 μL) consisted of 10 μg of recombinant protein and 10 μM nucleoside substrate in Dulbecco's PBS (Thermo Fisher), pH 7.4 unless otherwise indicated. The samples were incubated at 37° C. for 1 h and then quenched with ×5 volume of ice-cold methanol. Samples were centrifuged at 21,000 g for 5 min transferred to fresh tubes and then dried down prior to analysis as described above.

recombinant human FAMIN [2] = molecular target: T1, recombinant human FAMIN; assay: adenosine deaminase activity of FAMIN (adenosine to inosine, LC-MS); type: biochemical; settings: 10 μg recombinant FAMIN, 10 μM adenosine in PBS, 1 h at 37° C. (FIG. 5A)
recombinant human FAMIN [3] = molecular target: T1, recombinant human FAMIN; assay: adenosine phosphorylase activity of FAMIN (adenosine to adenine and ribose-1-phosphate, LC-MS); type: biochemical; settings: 10 μg recombinant FAMIN, 10 μM adenosine in PBS, 1 h at 37° C. (FIG. 5B, 5C)
Protocol: (§1) FIGS. 5B and 5C show levels of adenine and ribose-1-phosphate ([…]) in the reaction described in FIG. 5A. […] For enzyme kinetic assays a further chromatographic approach was used to allow for analysis of all substrates and products using a single assay. A Waters BEH C8 column was used (100×2.1 mm, 1.7 μm) with a weak mobile phase (A) of aqueous 10 mM ammonium acetate with 0.1% ammonia and a strong mobile phase (B) of acetonitrile. For gradient elution mobile phase B was held at 0% for 1.6 min, followed by a linear gradient to 30% B over 4.0 minutes, a further increase to 90% over 1 min, and a hold at 90% B for 1 min, with re-equilibration for 1.5 minutes giving a total run time of 6.5 minutes. The flow rate was 0.5 mL/min and the injection volume was 2 μL. The needle wash used was 4:1 water:acetonitrile. Putative enzymatic function of recombinant human strep-tagged FAMIN was investigated against aqueous HepG2 metabolite extracts (dried, Folch extracted from 5×10^6 cells) or nucleoside substrates at indicated concentrations and detected using HPLC-MS as described above. Unless otherwise indicated in the figure legends, HEK293T cell-expressed protein was used for all assays. The reaction mixture (final volume 100 μL) consisted of 10 μg of recombinant protein and 10 μM nucleoside substrate in Dulbecco's PBS (Thermo Fisher), pH 7.4 unless otherwise indicated. The samples were incubated at 37° C. for 1 h and then quenched with ×5 volume of ice-cold methanol. Samples were centrifuged at 21,000 g for 5 min transferred to fresh tubes and then dried down prior to analysis as described above.

recombinant human FAMIN [4] = molecular target: T1, recombinant human FAMIN; assay: purine nucleoside phosphorylase activity of FAMIN (inosine to hypoxanthine and ribose-1-phosphate, LC-MS); type: biochemical; settings: 10 μg recombinant FAMIN, 10 μM inosine in PBS, 1 h at 37° C. (FIG. 5D, 5E)
Protocol: as §1, with “The samples were incubated at 37° C. for 1 h and then quenched with ×5 volume of ice-cold methanol. Samples were centrifuged at 21,000 g for 5 min transferred to fresh tubes and then dried down prior to analysis as described above.” left out

[5] = substrate: Nc1ncnc2c1ncn2[C@@H]1O[C@H](CO)[C@@H](O)[C@H]1O; assay: adenosine phosphorylase activity of FAMIN (adenosine to adenine and ribose-1-phosphate, LC-MS); type: biochemical, human; settings: other: 500 nM to 100 μM adenosine, adenine production, 1 h at 37° C., pH 7.4 (FIG. 3A)
Protocol: as §1, with “The samples were incubated at 37° C. for 1 h and then quenched with ×5 volume of ice-cold methanol. Samples were centrifuged at 21,000 g for 5 min transferred to fresh tubes and then dried down prior to analysis as described above.” left out

[6] = substrate: CSC[C@H]1O[C@@H](n2cnc3c(N)ncnc32)[C@H](O)[C@@H]1O; assay: S-methyl-5'-thioadenosine phosphorylase activity of FAMIN (MTA to adenine, LC-MS); type: biochemical, human; settings: other: 500 nM to 100 μM MTA, adenine production, 1 h at 37° C., pH 7.4 (FIG. 3A)
Protocol: Activity measured as inosine, hypoxanthine and adenine production following incubation with protein for 1 h at 37° C. at pH 7.4.
For enzyme kinetic assays a further chromatographic approach was used to allow for analysis of all substrates and products using a single assay. A Waters BEH C8 column was used (100×2.1 mm, 1.7 μm) with a weak mobile phase (A) of aqueous 10 mM ammonium acetate with 0.1% ammonia and a strong mobile phase (B) of acetonitrile. For gradient elution mobile phase B was held at 0% for 1.6 min, followed by a linear gradient to 30% B over 4.0 minutes, a further increase to 90% over 1 min, and a hold at 90% B for 1 min, with re-equilibration for 1.5 minutes giving a total run time of 6.5 minutes. The flow rate was 0.5 mL/min and the injection volume was 2 μL. The needle wash used was 4:1 water:acetonitrile.
Putative enzymatic function of recombinant human strep-tagged FAMIN was investigated against aqueous HepG2 metabolite extracts (dried, Folch extracted from 5×10^6 cells) or nucleoside substrates at indicated concentrations and detected using HPLC-MS as described above. Unless otherwise indicated in the figure legends, HEK293T cell-expressed protein was used for all assays. The reaction mixture (final volume 100 μL) consisted of 10 μg of recombinant protein and 10 μM nucleoside substrate in Dulbecco's PBS (Thermo Fisher), pH 7.4 unless otherwise indicated. […]

[7] = substrate: OC[C@H]1O[C@@H](n2cnc3c(O)ncnc32)[C@H](O)[C@@H]1O; assay: purine nucleoside phosphorylase activity of FAMIN (inosine to hypoxanthine and ribose-1-phosphate, LC-MS); type: biochemical, human; settings: other: 500 nM to 100 μM inosine, hypoxanthine production, 1 h at 37° C., pH 7.4 (FIG. 3A)
Protocol: as §1, with “The samples were incubated at 37° C. for 1 h and then quenched with ×5 volume of ice-cold methanol. Samples were centrifuged at 21,000 g for 5 min transferred to fresh tubes and then dried down prior to analysis as described above.” left out

[8] = substrate: Nc1ncnc2c1ncn2[C@@H]1O[C@H](CO)[C@@H](O)[C@H]1O; assay: adenosine deaminase activity of FAMIN (adenosine to inosine, LC-MS); type: biochemical, human; settings: other: 500 nM to 100 μM adenosine, inosine production, 1 h at 37° C., pH 7.4 (FIG. 3A)

## C[C@H]1O[C@@H](n2cnc3c(N)ncnc32)[C@H](O)[C@@H]1O [5′-deoxy-adenosine, 5′-deoxyadenosine]
Recombinant human FAMIN [1]
  metabolised by FAMIN as pure substrate: substrate of FAMIN

## CCCCCC[C@@H]([C@@H](C)O)n1cnc2c(N)ncnc21 (racemic) [EHNA, erythro-9-(2-hydroxy-3-nonyl)adenine]
Recombinant human FAMIN [2]
  effect on adenosine deaminase activity of FAMIN (levels of inosine): inhibited
Recombinant human FAMIN [3]
  effect on FAMIN's adenosine phosphorylase activity (levels of adenine and R-1-P from adenosine): intact

## Nc1ncnc2c1ncn2[C@@H]1O[C@H](CO)[C@@H](O)[C@H]1O [adenosine]
Recombinant human FAMIN [1]
  metabolised by FAMIN as pure substrate: consumed

## Nc1ncnc2c1ncn2[C@H]1C[C@H](O)[C@@H](CO)O1 [2′-deoxy-adenosine, 2′-deoxyadenosine]
Recombinant human FAMIN [1]
  metabolised by FAMIN as pure substrate: metabolised

## C[S+](CC[C@H](N)C(=O)[O-])C[C@H]1O[C@@H](n2cnc3c(N)ncnc32)[C@H](O)[C@@H]1O (some centres unmarked) [SAM, S-adenosylmethionine]
Recombinant human FAMIN [1]
  metabolised by FAMIN as pure substrate: not

## Nc1nc2c(nc(N)n2[C@@H]2O[C@H](CO)[C@@H](O)[C@H]2O)c(=O)[nH]1 [8-aminoguanosine]
Recombinant human FAMIN [4]
  effect on FAMIN's purine nucleoside phosphorylase activity (generation of hypoxanthine and R-1-P from inosine): inhibited
Recombinant human FAMIN [3]
  effect on FAMIN's adenosine phosphorylase activity (levels of adenine and R-1-P from adenosine): did not affect

## CSC[C@H]1O[C@@H](n2cnc3c(N)ncnc32)[C@H](O)[C@@H]1O [MTA, S-methyl-5′-thioadenosine]
Recombinant human FAMIN [1]
  metabolised by FAMIN as pure substrate: metabolised

## OC[C@H]1O[C@@H](n2cnc3c(O)ncnc32)[C@H](O)[C@@H]1O [inosine]
Recombinant human FAMIN [1]
  metabolised by FAMIN as pure substrate: metabolised

## OC[C@H]1O[C@@H](n2cnc3c2NC=NC[C@H]3O)C[C@@H]1O [pentostatin]
Recombinant human FAMIN [3]
  effect on FAMIN's adenosine phosphorylase activity (levels of adenine and R-1-P from adenosine): intact

## Nc1ccn([C@@H]2O[C@H](CO)[C@@H](O)[C@H]2O)c(=O)n1 [cytidine]
Recombinant human FAMIN [1]
  metabolised by FAMIN as pure substrate: No activity

## Nc1nc2c(ncn2[C@@H]2O[C@H](CO)[C@@H](O)[C@H]2O)c(=O)[nH]1 [guanosine]
Recombinant human FAMIN [1]
  metabolised by FAMIN as pure substrate: metabolised

B1: recombinant human FAMIN (Homo sapiens) (protein)
chain: MAEAVLIDLFGLKLNSQKNCHQTLLKTLNAVQYHHAAKAKFLCIMCCSNISYERDGEQDNCEIETSNGLSALLEEFEIVSCPSMAATLYTIKQKIDEKNLSSIKVIVPRHRKTLMKAFIDQLFTDVYNFEFEDLQVTFRGGLFKQSIEINVITAQELRGIQNEIETFLRSLPALRGKLTIITSSLIPDIFIHGFTTRTGGISYIPTLSSFNLFSSSKRRDPKVVVQENLRRLANAAGFNVEKFYRIKTHHSNDIWIMGRKEPDSYDGITTNQRGVTIAALGADCIPIVFADPVKKACGVAHAGWKGTLLGVAMATVNAMIAEYGCSLEDIVVVLGPSVGPCCFTLPRESAEAFHNLHPACVQLFDSPNPCIDIRKATRILLEQGGILPQNIQDQNQDLNLCTSCHPDKFFSHVRDGLNFGTQIGFISIKE
notes: twin Strep-tag (followed by short linker and TEV cleavage site) (N, cleaved yes); made in house; host or cells: HEK293T
[5]
  Km: 36 µM
[6]
  Km: 1 µM
[7]
  Km: 41 µM
[8]
  Km: 11 µM
